Assay results taken from patent US8076332B2, “N- (2-aminophenyl) benzamide derivative having urea structure” (Santen Pharmaceutical Co., Ltd., priority 2006, dated 2011).

Test system: human trabecular meshwork cell line (TM-1 cells)
Experiment: Test for evaluation of effect of morphological change on trabecular meshwork cells (cell shape index, CSI)
Format: cell-based
Details: final concentration 10 μM, incubation 24 hours, CSI=4π×(Cell Area)/(Cell Perimeter)^2, average per group, Control 0.730
Description: 1. Test for Evaluation of Effect of Morphological Change on Trabecular Meshwork Cells
As a method for evaluating a cellular morphological change, an evaluation system using the cell shape index (hereinafter referred to as “CSI”) as an index has been reported in The Journal of Clinical Investigation, 103, 1141-1150 (1999). Therefore, according to the method described in the above document, an effect of morphological change of the present compounds on trabecular meshwork cells was evaluated.
A human trabecular meshwork cell line (hereinafter referred to as “TM-1 cells”) reported in Investigative Opthalmology & Visual Science, 43, 151-161 (2002) was used.
Culture medium 1: A reagent was prepared by adding fetal bovine serum (10%), L-glutamine (2 mM), amphotericin B (2.5 μg/mL), and gentamicin (25 μg/mL) to Dulbecco's modified Eagle medium (hereinafter referred to as “D-MEM”).
Culture medium 2: Fetal bovine serum (3%), L-glutamine (2 mM), amphotericin B (2.5 μg/mL), and gentamicin (25 μg/mL) were added to D-MEM.
Cell staining liquid: A mixed liquid of Calcein-AM (16 μM) and Hoechst 33342 (40 μM) was prepared by diluting a Calcein-AM solution (cytoplasmic staining reagent, manufactured by Dojindo Laboratories) and a Hoechst 33342 solution (nuclear staining reagent, manufactured by Dojindo Laboratories) with D-MEM containing L-glutamine (2 mM), amphotericin B (2.5 μg/mL), and gentamicin (25 μg/mL).
TM-1 cells subcultured at 37° C. in a 8% carbon dioxide gas atmosphere were treated with a trypsin/EDTA solution (0.05% trypsin and 0.53 mM tetrasodium ethylenediaminetetraacetate) at 24 hours before performing a drug treatment mentioned below and seeded on a 96-well culture plate. The culture medium 1 was used for the subculture of the cells. The culture medium 2 was used for the cell culture after seeding the cells on the plate.
A test compound was dissolved in dimethyl sulfoxide, whereby a 5 mM solution was prepared. Then, the resulting solution was diluted with the culture medium 2, whereby a 200 μM test compound solution was prepared.
It has been reported that Y-27632 which is a Rho kinase inhibitor induces a morphological change in trabecular meshwork cells in Investigative Ophthalmology & Visual Science, 42, 137-144 (2001). Therefore, Y-27632 (produced according to the method described in WO 90/05723) was used as a positive control, and dissolved in dimethyl sulfoxide in the same manner as the test compound, whereby a 5 mM solution was prepared, and then, the resulting solution was diluted with the culture medium 2, whereby a 200 μM positive control compound solution was prepared.
1) To a 96-well culture plate, a solution of TM-1 cells adjusted to a cell density of […] was added in an amount of 95 μL (1.5×10^4 cells) per well.
2) Incubation was performed at 37° C. in a 8% carbon dioxide gas atmosphere for 24 hours.
3) The test compound solution or positive control compound solution was added in an amount of 5 μL per well (the final concentration of the test compound or positive control compound was 10 μM). As a control, the culture medium 2 containing dimethyl sulfoxide (4%) was added in an amount of 5 μL per well.
4) Incubation was performed at 37° C. in a 8% carbon dioxide gas atmosphere for 24 hours.
5) The cell staining liquid was added in an amount of 10 μL per well.
6) Incubation was performed at 37° C. in a 8% carbon dioxide gas atmosphere for 1 hour to stain the cells.
7) A 37% formaldehyde solution was added in an amount of 10 μL per well.
8) Incubation was performed at room temperature for 1 hour to fix the cells.
9) Washing with phosphate-buffered saline was performed.
10) Using Array Scan Vti HCS reader (manufactured by Cellomics), images of stained cells magnified with a 20 times objective lens were captured in 80 fields (10 fields×8 wells) per test compound addition group.
11) CSI was calculated for each cell and an average value was obtained for each test compound addition group. […]

**Q.** How did the CSI turn out when CN(C)CCN(Cc1ccc(C(=O)Nc2ccccc2N)cc1)C(=O)Nc1ccccc1 [Compound 1-2, N-(2-Aminophenyl)-4-[1-(2-dimethylaminoerthyl)-3-phenyl-ureidomethyl]benzamide] was run?
**A.** 0.599

**Q.** CN(C)CCN(Cc1ccc(C(=O)Nc2ccccc2N)cc1)C(=O)NCCc1ccccc1 [Compound 1-4, N-(2-Aminophenyl)-4-[1-(2-dimethylaminoethyl)-3-phenethylureidomethyl]benz-amide] was tested. Which CSI did it give?
**A.** 0.545

**Q.** With CN(C)CCN(Cc1ccc(C(=O)Nc2ccccc2N)cc1)C(=O)NCc1ccccc1 [Compound 1-5, N-(2-Aminophenyl)-4-[3-benzyl-1-(2-dimethylaminoethyl)ureidomethyl]benzamide] as the compound, how does the CSI read?
**A.** 0.636

**Q.** With Nc1ccccc1NC(=O)c1ccc(CN(CC(O)CO)C(=O)Nc2ccc3c(c2)CCC3)cc1 (stereo not drawn) [Compound 1-16, N-(2-Aminophenyl)-4-[1-(2,3-dihydroxypropyl)-3-(indan-5-yl)ureidomethyl]benz-amide] as the compound, how does the CSI read?
**A.** 0.616

**Q.** With CNCCN(Cc1ccc(C(=O)Nc2ccccc2N)cc1)C(=O)NC1CCCC1 [Compound 1-22, N-(2-Aminophenyl)-4-[3-cyclo-pentyl-1-(2-methylamino-ethyl)ureidomethyl]benz-amide] as the compound, how does the CSI read?
**A.** 0.619

**Q.** Which CSI does the source give for CNCCN(Cc1ccc(C(=O)Nc2ccccc2N)cc1)C(=O)Nc1ccc2c(c1)OCCO2 [Compound 1-23, N-(2-Aminophenyl)-4-[3-(2,3-dihydrobenzo[1,4]dioxin-6-yl)-1-(2-methylamino-ethyl)ureidomethyl]benzamide] here?
**A.** 0.534

**Q.** For CN(C)CCCN(Cc1ccc(C(=O)Nc2ccccc2N)cc1)C(=O)NCCc1ccccc1 [Compound 1-28, N-(2-Aminophenyl)-4-[1-(3-dimethylaminopropyl)-3-phenylethylureidomethyl]benz-amide], which CSI is on record?
**A.** 0.514

**Q.** Which CSI does the source give for CN(C)c1ccc(NC(=O)N(CCCN2CCOCC2)Cc2ccc(C(=O)Nc3ccccc3N)cc2)cc1 [Compound 1-31, N-(2-Aminophenyl)-4-[3-(4-dimethylaminophenyl)-1-[3-(morpholin-4-yl)propyl]ureidomethyl]benzamide] here?
**A.** 0.632

**Q.** Nc1ccccc1NC(=O)c1ccc(CN(CC2CCNCC2)C(=O)Nc2ccc(Cl)cc2)cc1 [Compound 1-34, N-(2-Aminophenyl)-4-[3-(4-chlorophenyl)-1-(piperidin-4-ylmethyl)ureidomethyl] benzamide] was tested. Which CSI did it give?
**A.** 0.681

**Q.** How did the CSI turn out when COc1ccc(NC(=O)N(Cc2ccc(C(=O)Nc3ccccc3N)cc2)CC(C)(C)CN(C)C)cc1OC [Compound 1-36, N-(2-Aminophenyl)-4-[3-(3,4-dimethoxyphenyl)-1-(3-dimethylamino-2,2-dimethyl-propyl)ureidomethyl]benzamide] was run?
**A.** 0.539

**Q.** CN(C)CC(C)(C)CN(Cc1ccc(C(=O)Nc2ccccc2N)cc1)C(=O)Nc1ccc(CC#N)cc1 [Compound 1-38, N-(2-Aminophenyl)-4-[3-(4-cyanomethylphenyl)-1-(3-dimethylamino-2,2-dimethyl-propyl)ureidomethyl]benz-amide] was tested. Which CSI did it give?
**A.** 0.616

**Q.** With NCCCN(Cc1ccc(C(=O)Nc2ccccc2N)cc1)C(=O)Nc1ccc2c(c1)OCCO2 [Compound 1-39, N-(2-Aminophenyl)-4-[1-(3-aminopropyl)-3-(2,3-di-hydrobenzo[1,4]dioxin-6-yl)ureidomethyl]benzamide] as the compound, how does the CSI read?
**A.** 0.615

**Q.** For CN(C)c1ccc(NC(=O)N(CCCN2CCCC2=O)Cc2ccc(C(=O)Nc3ccccc3N)cc2)cc1 [Compound 1-43, N-(2-Aminophenyl)-4-[3-(4-dimethylaminophenyl)-1-[3-(pyrrolidin-2-on-1-yl)propyl]ureidomethyl]benzamide], which CSI is on record?
**A.** 0.679

**Q.** Which CSI does the source give for COC(=O)c1ccc(NC(=O)N(CCCN(C)C)Cc2ccc(C(=O)Nc3ccccc3N)cc2)cc1 [Compound 1-46, N-(2-aminophenyl)-4-[1-(3-dimethylaminopropyl)-3-(4-methoxycarbonylphenyl)ureidomethyl]benzamide] here?
**A.** 0.581

**Q.** For CN(C)c1ccc(NC(=O)N(CCO)Cc2ccc(C(=O)Nc3ccccc3N)cc2)cc1 [Compound 1-47, N-(2-Aminophenyl)-4-[3-(4-dimethylaminophenyl)-1-(2-hydroxyethyol)ureidomethyl] benzamide], which CSI is on record?
**A.** 0.613

**Q.** For Nc1ccccc1NC(=O)c1ccc(CN(CCO)C(=O)NCCc2ccccc2)cc1 [Compound 1-49, N-(2-Aminophenyl)-4-[1-(2-hydroxyethyl)-3-phenylethyl-ureidomethyl]benzamide], which CSI is on record?
**A.** 0.630

**Q.** How did the CSI turn out when CCN1CCCC1CN(Cc1ccc(C(=O)Nc2ccccc2N)cc1)C(=O)Nc1ccc2c(c1)OCCO2 (stereo not drawn) [Compound 1-50, N-(2-Aminophenyl)-4-[3-(2,3-dihydrobenzo[1,4]dioxin-6-yl)-1-(1-ethylpyrrolidin-2-ylmethyl)ureidomethyl] benzamide] was run?
**A.** 0.617

**Q.** For CN(C)CCCCN(Cc1ccc(C(=O)Nc2ccccc2N)cc1)C(=O)Nc1ccc(N(C)C)cc1 [Compound 1-53, N-(2-Aminophenyl)-4-[1-(4-dimethylaminobutyl)-3-(4-dimethylaminoiphenyl)ureido-methyl]benzamide], which CSI is on record?
**A.** 0.538

**Q.** With COc1cccc(NC(=O)N(CCCN2CCOCC2)Cc2ccc(C(=O)Nc3ccccc3N)cc2)c1 [Compound 1-58, N-(2-Aminophenyl)-4-[3-(3-methoxyphenyl)-1-[3-(mor-pholin-4-yl)propyl]ureido-methyl]benzamide] as the compound, how does the CSI read?
**A.** 0.610

**Q.** How did the CSI turn out when Nc1ccccc1NC(=O)c1ccc(CN(CCCN2CCOCC2)C(=O)Nc2ccc(OC(F)F)cc2)cc1 [Compound 1-60, N-(2-Aminophenyl)-4-[3-(4-difluoromethoxyphenyl)-1-[3-(morpholin-4-yl)propyl]ureidomethyl]benzamide] was run?
**A.** 0.608

**Q.** Nc1ccc(NC(=O)N(CCCN2CCOCC2)Cc2ccc(C(=O)Nc3ccccc3N)cc2)cc1 [Compound 1-66, N-(2-Aminophenyl)-4-[3-(4-aminophenyl)-1-[3-(mor-pholin-4-yl)propyl]ureidomethyl] benzamide] was tested. Which CSI did it give?
**A.** 0.624

**Q.** Which CSI does the source give for CN(C)CCCN(Cc1ccc(C(=O)Nc2ccccc2N)cc1)C(=O)Nc1cccc(OCc2ccccc2)c1 [Compound 1-76, N-(2-aminophenyl)-4-[3-(3-benzyloxyphenyl)-1-(3-dimethylaminopropyl)ureidomethyl]benzamide] here?
**A.** 0.649

**Q.** Which CSI does the source give for CN1CCN(CCN(Cc2ccc(C(=O)Nc3ccccc3N)cc2)C(=O)Nc2ccc3c(c2)OCCO3)CC1 [Compound 1-94, N-(2-Aminophenyl)-4-[3-(2,3-dihydrobenzo[1,4]dioxin-6-yl)-1-[2-(4-methylpiper-azin-1-yl)ethyl]ureidomethyl] benzamide] here?
**A.** 0.595

**Q.** CN1CCCC1CCN(Cc1ccc(C(=O)Nc2ccccc2N)cc1)C(=O)Nc1ccc(F)c(F)c1 (stereo not drawn) [Compound 1-97, N-(2-Aminophenyl)-4-[3-(3,4-difluorophenyl)-1-[2-(1-methylpyrrolidin-2-yl)-ethyl]ureidomethyl]benzamide] was tested. Which CSI did it give?
**A.** 0.595

**Q.** CN(C)CCCN(Cc1ccc(C(=O)Nc2ccccc2N)cc1)C(=O)Nc1ccc(F)c([N+](=O)[O-])c1 [Compound 1-102, N-(2-Aminophenyl)-4-[1-(3-dimethylaminopropyl)-3-(4-fluoro-3-nitrophenyl)ureido-methyl]benzamide] was tested. Which CSI did it give?
**A.** 0.538

**Q.** With CN(C)CCCN(Cc1ccc(C(=O)Nc2ccccc2N)cc1)C(=O)Nc1cccnc1 [Compound 1-104, N-(2-Aminophenyl)-4-[1-(3-dimethylaminopropyl)-3-(pyridin-3-yl)ureidomethyl]-benzamide] as the compound, how does the CSI read?
**A.** 0.609

**Q.** For COc1ccc(N)c(NC(=O)c2ccc(CN(CCN(C)C)C(=O)Nc3ccc4c(c3)CCC4)cc2)c1 [Compound 1-107, N-(2-Amino-5-methoxyphenyl)-4-[1-(2-dimethylamino-ethyl)-3-(indan-5-yl)ureod-methyl]benzamide], which CSI is on record?
**A.** 0.663
